The test deals with Hs578T multi-cell spheroids, viability. The test can be described thus: Anticancer human tumor Hs578T cell line growth inhibition [IpAb].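 As to all read-outs here: drug exposure lasted 7 days before readout.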 The settings on record: for viability, T/C: stronger effect = lower value. The text has this:
Combinatorial screen of targeted agents with ipatasertib and abemaciclib in multi-cell type tumor spheroids
A high-throughput screen of multi-cell type tumor spheroids was designed to identify active combinations of targeted small molecules and ipatasertib or abemaciclib. Complex spheroids include a stromal component modeled by human endothelial cells (HUVEC) and fibroblasts modeled by human mesenchymal stem cells (MSCs). The concentration ranges selected for each drug and investigational agent were based upon clinically achievable concentrations if the clinical Cmax of the agent was known.
Compounds. The drugs and investigational agents: ipatasertib (NSC767898), abemaciclib(NSC768073), selumetinib (NSC741078), trametinib (758246), adavosertib (NSC754352), everolimus (NSC733504), sapanisertib (NSC764658), vemurafenib (NSC761431), venetoclax (NSC766270), copanlisib (NSC809693), apelisib (NSC765974), palbociblib (NSC758247), vemurafenib (NSC761431), dabrafenib (NSC764134), ravoxertinib (NSC781343), BMS-387032 (NSC767048), sotorasib (NSC818433), talazoparib (NSC767125) and afursertib (NSC778305), were obtained from the National Cancer Institute (NCI) Developmental Therapeutics Program Chemical Repository. The FDA-approved anticancer drug set is available from the NCI Developmental Therapeutics Program. […] The stock solutions were prepared in dimethyl sulfoxide (DMSO, Sigma-Aldrich, St. Louis, MO, cat. D2650) at 800-fold the tested concentration and stored at -70 degrees C prior to their use. All drugs and investigational agents were tested over a range starting from a high concentration at or near the clinical Cmax and decreasing in half-log increments. If the clinical Cmax for an agent had not been determined, the highest concentration tested was 10 microM.
NCI60 Cell Culture. NCI60 cell lines were obtained from the NCI Developmental Therapeutics Program Tumor Repository. For each lot of cells, the Repository performed Applied Biosystems AmpFLSTR Identifiler testing with PCR amplification to confirm consistency with the published Identifier STR profile for each cell line. Cells were kept in continuous culture for no more than 20 passages. The optimal seeding densities for each of the cell lines at each time point assessed were determined prior to performing the concentration response studies. Briefly, the NCI60 human tumor lines were grown as monolayers in RPMI 1640 medium supplemented with 10% FBS and 2 mmol/L L-glutamine.
An additional 9 lines were from the NCI60 cell line panel including MDA-MB-231 breast carcinoma, MDA-MB-468 breast carcinoma, MCF7 breast carcinoma, Hs578T breast carcinoma, MALME-3M melanoma, SK-MEL-2 melanoma, SK-OV-3 ovarian carcinoma, DU-145 prostate carcinoma, PC-3 prostate carcinoma, all cell lines along with major genetic alterations are listed on Table 2. Pooled donor human umbilical vein endothelial cells (HUVEC, Lonza, cat. CC-2519) and human mesenchymal stem cells (hMSC, Lonza, cat. PT-2501) were purchased from Lonza (Walkersville, MD).
PDMR cell lines were grown in complete medium (DC medium): Dulbecco's modified Eagle's medium (DMEM)/F12 supplemented with 5% fetal bovine serum (FBS), 2 mM L-glutamine, 100 U/mL penicillin and 100 µg/ml streptomycin, 0.4 µg/ml hydrocortisone, 10 ng/ml epidermal growth factor (EGF) recombinant human protein, 24 µg/mL adenine, and 0.1 mg/mL primocin. During culture from frozen stock vials, PDMR cells were cultured in the same medium containing 10 µM Y-27632 (see Table 3). The PDCs were cultured in complete DMEM/F12 media without 10 microM Y-27632 dihydrochloride for at least two passages prior to the screen. The pooled donor HUVEC and hMSC were cultured in endothelial cell growth medium 2 (PromoCell, Heidelberg, Germany, cat. C-22011) and mesenchymal stem cell growth medium 2 (PromoCell, cat. C-28009), respectively. For all experiments, HUVEC and hMSC were used at passages </=5.
[…]

Setting [1] is: curve of first compound, second compound 0.1 µM.
The mark [2] stands for this setting: curve of first compound, second compound 0.316 µM.
Setting [3] is: curve of first compound, second compound 1 µM.
Setting [4] is: curve of first compound, second compound 3.16 µM.
Where [5] appears, read: curve of first compound, second compound 10 µM.

Molecules are shown by their SMILES. “And” between values parts separate entries of the source, which are not always exact repeats. Equal entries are not always repeated.

As a reminder, the IC50 is the concentration that inhibits the measured activity by half. What is called viability, T/C is the ratio of treated to control. Turning to `Cn1cnc2c(F)c(Nc3ccc(Br)cc3Cl)c(C(=O)NOCCO)cc21` + CC(C)NCC(C(=O)N1CCN(c2ncnc3c2C(C)CC3O)CC1)c1ccc(Cl)cc1, the IC50 runs as follows: under setting [1], 2310 nM; under setting [2], 1200 nM; under setting [3], 400 nM; under setting [4], 123 nM; under setting [5], 26.5 nM. For the same compound, the viability, T/C reads like this: (second compound 0.1 µM, first compound 0.00949 µM) 96.2%; (second compound 0.1 µM, first compound 0.03 µM) 91.8%; (second compound 0.1 µM, first compound 0.0949 µM) 85.3%; (second compound 0.1 µM, first compound 0.3 µM) 84.2%; (second compound 0.1 µM, first compound 0.949 µM) 74.8%; (second compound 0.1 µM, first compound 3 µM) 42.8%. For the same compound, the viability, T/C is 87.7% (second compound 0.316 µM, first compound 0.00949 µM); 86.2% (second compound 0.316 µM, first compound 0.03 µM); 83.4% (second compound 0.316 µM, first compound 0.0949 µM); 64.9% (second compound 0.316 µM, first compound 0.3 µM); 58% (second compound 0.316 µM, first compound 0.949 µM); 30.4% (second compound 0.316 µM, first compound 3 µM). The viability, T/C is, setting by setting: (second compound 1 µM, first compound 0.00949 µM) 77%; (second compound 1 µM, first compound 0.03 µM) 72%; (second compound 1 µM, first compound 0.0949 µM) 63.1%; (second compound 1 µM, first compound 0.3 µM) 54.4%; (second compound 1 µM, first compound 0.949 µM) 39.2%; (second compound 1 µM, first compound 3 µM) 19.3%. Besides, the viability, T/C is 53.8% (second compound 3.16 µM, first compound 0.00949 µM); 52.2% (second compound 3.16 µM, first compound 0.03 µM); 47.9% (second compound 3.16 µM, first compound 0.0949 µM); 49.4% (second compound 3.16 µM, first compound 0.3 µM); 35.2% (second compound 3.16 µM, first compound 0.949 µM); 12.4% (second compound 3.16 µM, first compound 3 µM). In addition, the viability, T/C is 52.6% (second compound 10 µM, first compound 0.00949 µM); 50.1% (second compound 10 µM, first compound 0.03 µM); 42.2% (second compound 10 µM, first compound 0.0949 µM); 43.1% (second compound 10 µM, first compound 0.3 µM); 23.2% (second compound 10 µM, first compound 0.949 µM); 5.18% (second compound 10 µM, first compound 3 µM).

Consider `Cn1ncnc1[C@H]1c2n[nH]c(=O)c3cc(F)cc(c23)N[C@@H]1c1ccc(F)cc1` + CC(C)NCC(C(=O)N1CCN(c2ncnc3c2C(C)CC3O)CC1)c1ccc(Cl)cc1, for which the IC50 reads like this: under setting [1], greater than 100 nM; under setting [2], greater than 100 nM; under setting [3], greater than 100 nM; under setting [4], 0.553 nM; under setting [5], less than 0.316 nM. Moreover, the viability, T/C runs as follows: (second compound 0.1 µM, first compound 0.000316 µM) 97.6%; (second compound 0.1 µM, first compound 0.001 µM) 95.3%; (second compound 0.1 µM, first compound 0.00316 µM) 87.9%; (second compound 0.1 µM, first compound 0.01 µM) 88.2%; (second compound 0.1 µM, first compound 0.0316 µM) 82.8%; (second compound 0.1 µM, first compound 0.1 µM) 82.3%. Also, the viability, T/C (second compound 0.316 µM, first compound 0.000316 µM) was 80.7%; the viability, T/C (second compound 0.316 µM, first compound 0.001 µM) is 79.5%; the viability, T/C (second compound 0.316 µM, first compound 0.00316 µM) is 79.9%; the viability, T/C (second compound 0.316 µM, first compound 0.01 µM) was 71.7%; the viability, T/C (second compound 0.316 µM, first compound 0.0316 µM) was 75.5%; the viability, T/C (second compound 0.316 µM, first compound 0.1 µM) was 65.9%. Moreover, the viability, T/C reads like this: (second compound 1 µM, first compound 0.000316 µM) 66.1%; (second compound 1 µM, first compound 0.001 µM) 61.3%; (second compound 1 µM, first compound 0.00316 µM) 62.6%; (second compound 1 µM, first compound 0.01 µM) 60%; (second compound 1 µM, first compound 0.0316 µM) 58.6%; (second compound 1 µM, first compound 0.1 µM) 55.1%. The viability, T/C is 49.7% (second compound 3.16 µM, first compound 0.000316 µM); 49.4% (second compound 3.16 µM, first compound 0.001 µM); 50.5% (second compound 3.16 µM, first compound 0.00316 µM); 48.3% (second compound 3.16 µM, first compound 0.01 µM); 44.9% (second compound 3.16 µM, first compound 0.0316 µM); 42.3% (second compound 3.16 µM, first compound 0.1 µM). Besides, the viability, T/C is 46.1% (second compound 10 µM, first compound 0.000316 µM); 42.9% (second compound 10 µM, first compound 0.001 µM); 44.9% (second compound 10 µM, first compound 0.00316 µM); 40.6% (second compound 10 µM, first compound 0.01 µM); 43.3% (second compound 10 µM, first compound 0.0316 µM); 38.6% (second compound 10 µM, first compound 0.1 µM).

Consider `CC(C)NCC(C(=O)N1CCN(c2ncnc3c2C(C)CC3O)CC1)c1ccc(Cl)cc1` (configuration not stated), for which the viability, T/C runs as follows: (compound 0.1 µM) 96.2% [middle of 13 runs]; (compound 0.316 µM) 83.9% [middle of 13 runs]; (compound 1 µM) 66.8% [middle of 13 runs]; (compound 3.16 µM) 53.8% [middle of 12 runs]; (compound 10 µM) 45% [middle of 13 runs].

With `Cn1ncc(Cl)c1-c1cc(C(=O)NC(CN)Cc2cccc(F)c2)sc1Cl` (configuration not stated), the viability, T/C is, setting by setting: (compound 0.0316 µM) 90.4% and 98.8%; (compound 0.1 µM) 91% and 85.1%; (compound 0.316 µM) 72.4% and 75.8%; (compound 1 µM) 60.7% and 63.9%; (compound 3.16 µM) 49.9% and 56.1%; (compound 10 µM) 0.22% and 0.31%. For the same compound, the IC50 (curve of compound) is 2180 nM and 2650 nM.

The values above are taken from PubChem BioAssay AID2060331 (Molecular Pharmacology Branch, DTP, NCI, 2025).
